Results as given in patent US8900644B2, “Oral care compositions containing compounds from magnolia and hops extracts” (Colgate-Palmolive Company, priority 2004, dated 2014).

How the values were obtained:
Experiment in all cases: in vitro test Minimal Inhibitory Concentration (MIC)
Assay type in all cases: cell-based
A. naeslundii = test system: A. naeslundii
Excerpt: (§1) For example, the oral compositions of the present invention are bactericidal against representative oral bacteria, such as S. mutans, F. nucleatum, V. parvula, A. naeslundii, and P. gingivitis as measured by the in vitro test Minimal Inhibitory Concentration (MIC). The oral composition of the present invention is applied to the oral surfaces in the oral cavity, and promotes overall oral health, including preventing plaque formation, caries formation, calculus formation, halitosis, gingivitis, and periodontitis, for example. For example, in an embodiment of the present invention, where an oral care composition comprises an orally acceptable delivery carrier and a safe and effective amount of the combination of an extract of hops and an extract of magnolia, it has been observed that the antibacterial activity is highly efficacious against both gram-positive and gram-negative bacteria.
(§2) It should be noted that any plant from the Magnoliaceae family is suitable for the present invention and may be used in alternate embodiments. Preferably such that the extract comprises an antimicrobially effective concentration of a compound selected from the group consisting of magnolol, honokiol, tetrahydromagnolol, tetrahydrohonokiol, and mixtures thereof.

F. nucleatum = test system: F. nucleatum
Excerpt: as §1, §2

P. gingivitis = test system: P. gingivitis
Excerpt: as §1, §2

S. mutans = test system: S. mutans
Excerpt: as §1, §2

V. parvula = test system: V. parvula
Excerpt: as §1, §2

Measured: bactericidal properties in Minimal Inhibitory Concentration (MIC) test

CCCc1ccc(O)c(-c2cc(CCC)ccc2O)c1 [tetrahydromagnolol]
bactericidal: A. naeslundii | F. nucleatum | P. gingivitis | S. mutans | V. parvula

CCCc1ccc(O)c(-c2ccc(O)c(CCC)c2)c1 [tetrahydrohonokiol]
bactericidal: A. naeslundii | F. nucleatum | P. gingivitis | S. mutans | V. parvula

C=CCc1ccc(O)c(-c2ccc(O)c(CC=C)c2)c1 [honokiol]
bactericidal: A. naeslundii | F. nucleatum | P. gingivitis | S. mutans | V. parvula

C=CCc1ccc(O)c(-c2cc(CC=C)ccc2O)c1 [magnolol]
bactericidal: A. naeslundii | F. nucleatum | P. gingivitis | S. mutans | V. parvula
